In series [1] the test system is SH-SY5Y cells. Description: nuclear condensation and fragmentation, Hoechst 33258 assay. The series is classed as cell-based, human. Particulars: 100 µM, 24 h. The method, then: (§1) Thus, SH-SY5Y cells were incubated with II-6h and III-6a (10 and 100 µM) for 24 h. After the treatment, dehydrogenase activity, glutathione levels, nuclear condensation and fragmentation, and ATP levels were measured (Figure 7). […] The decrease in dehydrogenase activity was found in cells treated with 100 µM II-6h (p < 0.001).
To measure nuclear condensation and fragmentation in intact cells, we used fluorescence dye Hoechst 33258 (H33258, 1 mg/mL; Merck, USA). After cell treatment with II-6h (10–100 µM) and III-6a (10–100 µM), the cells grown in a 96-well plate were centrifuged (5 min; 8000g; RT). Then, 70 µL of a supernatant was replaced with 70 µL of PBS 1× and 10 µL of H33258 solution was added to a well. The final concentrations of H33258 in a well was 2 µg/mL. Then, the cells were incubated with H33258 for 5 min and spectrofluorometric measurement was performed at Ex/Em = 352/461 nm using SPARK microplate reader (Tecan, Austria) while incubated at 37 °C. The samples were measured at least in triplicates. After background subtraction, the fluorescence signal was presented in RFU as mean ± SEM.

Series [2] concerns SH-SY5Y cells. As to the kind of experiment: intracellular ATP, luciferase luminescence assay. The series is classed as cell-based, human. Particulars: 100 µM, 24 h. The method, then:
as §1
The quantification of intracellular ATP was performed using luciferase luminescence assay. After cell treatment with II-6h and III-6a (10–100 µM), the culture medium was replaced with 100 µL of cold water for cell lysis, incubated for 5 min and centrifuged (4800× g; 5 min; 4 °C). To detect intracellular ATP concentration, 90 µL of the reaction solution was added to 10 µL of a lysate. The reaction solution included 20× reaction buffer (500 mM Tricine buffer, pH 7.8; 10 mM MgSO4, 2 mM Na2EDTA), 5 mg/mL luciferase; 10 mM D-luciferin; 0.1 M DTT and dH2O. Luminometric measurement was performed at Em = 550 nm using SPARK microplate reader (Tecan, Grödig, Austria). The intracellular ATP levels were expressed as the percentage of total ATP level relative to that in the control cells (control = 100%) as mean ± SEM.

Series [3] addresses T1, hMAO-B (Homo sapiens, UniProt P27338).
T1 construct: purchased Merck (Prague, Czech Republic)
T1 sequence (P27338 1-520): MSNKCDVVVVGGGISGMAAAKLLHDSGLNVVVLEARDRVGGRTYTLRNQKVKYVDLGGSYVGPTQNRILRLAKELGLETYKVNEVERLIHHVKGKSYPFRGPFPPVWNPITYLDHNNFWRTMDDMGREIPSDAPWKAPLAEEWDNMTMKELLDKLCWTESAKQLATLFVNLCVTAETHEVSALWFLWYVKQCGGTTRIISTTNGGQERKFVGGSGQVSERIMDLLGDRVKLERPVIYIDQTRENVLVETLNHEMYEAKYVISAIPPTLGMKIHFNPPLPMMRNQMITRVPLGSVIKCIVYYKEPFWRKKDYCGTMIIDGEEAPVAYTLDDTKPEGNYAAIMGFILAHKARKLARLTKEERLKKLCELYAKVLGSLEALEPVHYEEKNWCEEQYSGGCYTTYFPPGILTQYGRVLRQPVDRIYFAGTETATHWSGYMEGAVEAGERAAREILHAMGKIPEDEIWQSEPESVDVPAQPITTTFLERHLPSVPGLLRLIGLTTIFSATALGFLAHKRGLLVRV
Description: hMAO-B inhibition mechanism: dialysis reversibility and kinetics. The series is classed as biochemical. Particulars: for mode of hMAO-B inhibition: non-linear regression according to Michaelis–Menten. On the procedure:
(§2) The MAOs were subsequently incubated with selected compounds at different concentrations and evaluated by non-linear regression according to Michaelis–Menten (Figure 5).
(§3) Inhibition mechanism was determined by non-linear regression and the double reciprocal method by Lineweaver–Burk using GraphPad Prism 8.2 software. […] The recovery of enzyme activity was determined using the above-mentioned protocol.

In series [4] the target is T2, hMAO-A (Homo sapiens, UniProt P21397).
T2 construct: purchased Merck (Prague, Czech Republic)
T2 sequence (P21397 1-527): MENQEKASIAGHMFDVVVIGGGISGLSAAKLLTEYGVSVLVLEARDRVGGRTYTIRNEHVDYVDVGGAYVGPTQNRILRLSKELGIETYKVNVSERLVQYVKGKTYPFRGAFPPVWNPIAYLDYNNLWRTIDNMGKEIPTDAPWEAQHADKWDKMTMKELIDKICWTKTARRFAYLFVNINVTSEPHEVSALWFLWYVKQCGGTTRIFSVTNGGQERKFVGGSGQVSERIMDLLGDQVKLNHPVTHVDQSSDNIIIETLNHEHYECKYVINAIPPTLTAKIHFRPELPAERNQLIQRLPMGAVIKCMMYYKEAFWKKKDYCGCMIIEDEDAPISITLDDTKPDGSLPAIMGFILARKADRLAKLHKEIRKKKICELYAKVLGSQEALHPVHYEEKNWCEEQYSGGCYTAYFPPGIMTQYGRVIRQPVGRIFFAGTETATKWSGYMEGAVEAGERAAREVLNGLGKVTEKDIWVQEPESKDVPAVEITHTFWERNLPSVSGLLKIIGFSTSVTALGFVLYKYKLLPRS
As to the kind of experiment: hMAO-A inhibition mechanism: dialysis reversibility and kinetics. The series is classed as biochemical. Particulars: non-linear regression according to Michaelis–Menten. The method, then:
as §2, §3

Consider `C#CCN(C)c1nc(NC2CCCCC2)c2ccc(Cl)cc2n1` [II-6h, 7-chloro-N4-cyclohexyl-N2-methyl-N2-(prop-2-yn-1-yl)quinazoline-2,4-diamine], for which the “nuclear condensation and fragmentation (in words)” value in series [1] is given as “significant increase”. Further, the “intracellular ATP levels (in words)” value in series [2] is “partial exhaustion of ATP”. In addition, the “mode of hMAO-B inhibition” value in series [3] is “mixed mode inhibition”. The “reversible/irreversible inhibitory action towards hMAO-B” value in series [3] (recovery of enzyme activity after dialysis) was “only a partial recovery”.
As to `C#CCN(C)c1nc(NC2CCCCC2)c2ccccc2n1` [I-6h, N4-cyclohexyl-N2-methyl-N2-(prop-2-yn-1-yl)quinazoline-2,4-diamine], the “mode of hMAO-A inhibition” value in series [4] is “mixed mode inhibition”. In addition, the “mode of hMAO-B inhibition” value in series [3] is on record as “mixed mode inhibition”.
Turning to `C#CCN(C)c1nc(N)c2cc(OC)ccc2n1` [III-6a, 6-methoxy-N2-methyl-N2-(prop-2-yn-1-yl)quinazoline-2,4-diamine], the “nuclear condensation and fragmentation (in words)” value in series [1] is recorded as “significant increase”. Moreover, the “mode of hMAO-A inhibition” value in series [4] is “mixed mode inhibition”.

For the origin of these results see article PMC10252614 (International Journal of Molecular Sciences, 2023).
